Three sequences from PMC3867523 (Journal of hepatology, 2013) can be followed below.

In this assay the target is HLA-B*27:05 (Homo sapiens, UniProt P01889, D138H/D201E/E176V/E204Q/G107R/H137Y/K202T/N104T/N87E/Q56L/Q94K/R106L/R155S/R180L/S101D/S121N/S48T/Y140D/Y33H/Y91C). The experiment in a line: biochemical. Type of assay: binding.

Ends that are not written are not given here.

As for ARHTPVNSW [NS5B-2820], it took 338 nM to reach half-maximal inhibition (IC50).
As for ARMILMTHF [NS5B-2841], half-maximal inhibition (IC50) required 1.1 nM.
With GRAAICGKY [NS5B-2936] the figure was 1 nM.
